Results taken from PubChem BioAssay (NCI).
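Briefly, cells in 96-well plates were exposed to five compound concentrations for 48 h, and endpoints were estimated by linear interpolation. The concentration for full growth arrest is given as TGI.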

Key:
Test in all cases: NCI-60 cell line screen, 48 h
786-0 renal = test system: 786-0 renal
A498 renal = test system: A498 renal
A549 NSCLC = test system: A549 NSCLC
ACHN renal = test system: ACHN renal
CAKI-1 renal = test system: CAKI-1 renal
CCRF-CEM leukemia = test system: CCRF-CEM leukemia
COLO 205 colon = test system: COLO 205 colon
DU-145 prostate = test system: DU-145 prostate
EKVX NSCLC = test system: EKVX NSCLC
HCC-2998 colon = test system: HCC-2998 colon
HCT-116 colon = test system: HCT-116 colon
HCT-15 colon = test system: HCT-15 colon
HL-60(TB) leukemia = test system: HL-60(TB) leukemia
HOP-62 NSCLC = test system: HOP-62 NSCLC
HOP-92 NSCLC = test system: HOP-92 NSCLC
HT29 colon = test system: HT29 colon
IGROV1 ovarian = test system: IGROV1 ovarian
K-562 leukemia = test system: K-562 leukemia
KM12 colon = test system: KM12 colon
LOX IMVI melanoma = test system: LOX IMVI melanoma
M14 melanoma = test system: M14 melanoma
MALME-3M melanoma = test system: MALME-3M melanoma
MCF7 breast = test system: MCF7 breast
MDA-MB-231 breast = test system: MDA-MB-231 breast
MDA-MB-435 = test system: MDA-MB-435
MDA-N = test system: MDA-N
MOLT-4 leukemia = test system: MOLT-4 leukemia
NCI-H226 lung = test system: NCI-H226 lung
NCI-H23 lung = test system: NCI-H23 lung
NCI-H460 lung = test system: NCI-H460 lung
NCI-H522 lung = test system: NCI-H522 lung
NCI/ADR-RES ovarian = test system: NCI/ADR-RES ovarian
OVCAR-3 ovarian = test system: OVCAR-3 ovarian
OVCAR-4 ovarian = test system: OVCAR-4 ovarian
OVCAR-5 ovarian = test system: OVCAR-5 ovarian
OVCAR-8 ovarian = test system: OVCAR-8 ovarian
PC-3 prostate = test system: PC-3 prostate
RXF 393 renal = test system: RXF 393 renal
SF-268 CNS = test system: SF-268 CNS
SF-295 CNS = test system: SF-295 CNS
SF-539 CNS = test system: SF-539 CNS
SK-MEL-2 melanoma = test system: SK-MEL-2 melanoma
SK-MEL-28 melanoma = test system: SK-MEL-28 melanoma
SK-MEL-5 melanoma = test system: SK-MEL-5 melanoma
SK-OV-3 ovarian = test system: SK-OV-3 ovarian
SN12C renal = test system: SN12C renal
SNB-19 CNS = test system: SNB-19 CNS
SNB-75 CNS = test system: SNB-75 CNS
SR leukemia = test system: SR leukemia
SW-620 colon = test system: SW-620 colon
T-47D breast = test system: T-47D breast
TK-10 renal = test system: TK-10 renal
U251 CNS = test system: U251 CNS
UACC-257 melanoma = test system: UACC-257 melanoma
UACC-62 melanoma = test system: UACC-62 melanoma
BT-549 breast = test system: BT-549 breast
UO-31 renal = test system: UO-31 renal
RPMI-8226 leukemia = test system: RPMI-8226 leukemia

Measured: TGI

Cc1ccc2c(c1)[nH]c1cc(C(F)(F)F)ccc1[p+]2=O (stereo not drawn)
66.4 µM: K-562 leukemia
56.2 µM: HL-60(TB) leukemia
50.2 µM: CCRF-CEM leukemia
52 µM: MOLT-4 leukemia
66 µM: UACC-257 melanoma
54.9 µM: UACC-62 melanoma
79.2 µM: OVCAR-4 ovarian
34 µM: SK-MEL-5 melanoma
54.5 µM: HOP-92 NSCLC
31.5 µM: COLO 205 colon
22.2 µM: EKVX NSCLC
76.7 µM: SNB-19 CNS
49.1 µM: MDA-MB-231 breast
74.5 µM: A498 renal
55.9 µM: SNB-75 CNS
70.5 µM: NCI-H226 lung
73.5 µM: PC-3 prostate
81.9 µM: SF-295 CNS
not listed: BT-549 breast | UO-31 renal | RPMI-8226 leukemia
> 100 µM: all other assays above

NCCSc1nc2ccccc2c(=O)n1-c1ccccc1
90.7 µM: HL-60(TB) leukemia
57.1 µM: SNB-19 CNS
65.5 µM: HOP-92 NSCLC
not listed: DU-145 prostate | MOLT-4 leukemia | NCI-H460 lung | RXF 393 renal | SF-268 CNS | RPMI-8226 leukemia
> 100 µM: all other assays above

Cc1cc(C2(O)C=C(C(C)(C)C)C(=O)C(C(C)(C)C)=C2)c(C)cc1C1(O)C=C(C(C)(C)C)C(=O)C(C(C)(C)C)=C1
not listed: A498 renal | HCC-2998 colon | HOP-92 NSCLC | MDA-MB-435 | NCI-H460 lung | OVCAR-3 ovarian | RXF 393 renal
> 100 µM: all other assays above

CCOc1ccc(-c2nc(-c3oc4ccccc4c(=O)c3OC(C)=O)cs2)cc1
7.21 µM: RXF 393 renal
not listed: A498 renal | ACHN renal | HCT-116 colon | HOP-92 NSCLC | MDA-MB-435 | NCI-H226 lung | NCI-H460 lung | NCI-H522 lung | NCI/ADR-RES ovarian | OVCAR-3 ovarian | OVCAR-4 ovarian | OVCAR-5 ovarian | SF-539 CNS | SK-MEL-2 melanoma | SNB-19 CNS | U251 CNS | BT-549 breast | UO-31 renal
> 10 µM: all other assays above
